Results: BindingDB's records for doi:10.1074/jbc.M113.476234 (The Scripps Research Institute, 2013)
pIC50: −log10 of the molar value.

Tests used:
[1] = target: T1, Kappa-type opioid receptor (Homo sapiens, UniProt P41145); assay: β-Arrestin2 Assay
[2] = target: T1, Kappa-type opioid receptor; assay: [35S]GTPγS Coupling Assay

T1 sequence (P41145 whole entry): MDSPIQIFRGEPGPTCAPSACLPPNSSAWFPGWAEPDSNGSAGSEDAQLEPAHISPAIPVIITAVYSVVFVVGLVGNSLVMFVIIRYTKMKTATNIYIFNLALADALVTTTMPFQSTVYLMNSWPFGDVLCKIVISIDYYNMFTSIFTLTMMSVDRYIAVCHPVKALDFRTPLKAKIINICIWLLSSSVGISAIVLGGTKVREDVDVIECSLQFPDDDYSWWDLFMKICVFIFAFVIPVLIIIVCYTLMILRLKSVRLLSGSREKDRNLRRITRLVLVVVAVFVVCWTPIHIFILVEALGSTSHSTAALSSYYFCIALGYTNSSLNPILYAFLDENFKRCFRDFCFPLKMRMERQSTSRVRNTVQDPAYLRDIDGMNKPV

NC(N)=Nc1ccc2[nH]c3c(c2c1)C[C@@]1(O)[C@@H]2Cc4ccc(O)c5c4[C@@]1(CCN2CC1CC1)[C@H]3O5 [5'-Guanidinonaltrindole (5'-GNTI)]
pIC50 [1]: 9.10
pIC50 [2]: 10.15
